Patent US20230390267A1, “TREATMENT REGIMENS FOR EARLY IDIOPATHIC PARKINSON'S DISEASE” (BIAL - PORTELA & CA., S.A., priority 2020, published 2023)
Read-outs that look alike come from different tables or passages of the source.

Columns and labels:
[1] = test system: patients with early idiopathic Parkinson's disease treated with levodopa/DDCI, with no signs of motor complications; assay: EPSILON Phase III double-blind placebo-controlled study, efficacy; assay type: in vivo, human
From the text: The primary endpoint was the change from baseline to end of double-blind period in MDS-UPDRS Part III (motor) scores, and secondary outcomes assessed non-motor symptoms, quality of life and global clinical impressions of change.
Subjects were between 30 and 80 years of age, inclusive, diagnosed with early idiopathic Parkinson's disease according to the United Kingdom Parkinson's Disease Society Brain Bank Clinical Diagnostic Criteria within the previous 5 years, with disease severity stage 1-2.5 (according to modified Hoehn & Yahr staging) and a MDS-UPDRS Part III score>20. Alternatively, the subjects were diagnosed with early idiopathic Parkinson's disease according to the […] within the previous 5 years, with disease severity stage 1-2.5 (according to modified Hoehn & Yahr staging) and a MDS-UPDRS Part III score>20.
322 subjects completed the double-blind phase (FIG. 10).
Study treatment was administered in combination with the subject's existing treatment of levodopa/DDCI.
The primary efficacy parameter, change from baseline (Visit 2) in MDS-UPDRS Part III total score at the end of the double-blind period (Visit 9), was analyzed using a Mixed Model Repeated Measures (MMRM) approach with fixed effects for baseline, center/country, (randomized) treatment, visit, treatment by visit interaction and baseline by visit interaction, and subject as a random effect. Difference between treatment groups (opicapone versus placebo) was estimated from the model.
A similar MMRM analysis used for the primary endpoint was used for relevant secondary efficacy endpoints in the double-blind period. The secondary endpoints included: • Change from baseline (Visit 2) to post-baseline visits during the double-blind trial in: • MDS-UPDRS scores: Parts I, II, III and IV, and Part II+III total • Modified Hoehn & Yahr staging total score during maximum ‘ON’ response • Schwab and England scale score • Parkinson's Disease Sleep Scale 2 (PDSS-2) total score • MDS-Non-motor Symptom Scale (MDS-NMSS) total and subdomain scores • Parkinson's Disease Questionnaire (PDQ-39) total and subdomain scores • 9-item Wearing-off questionnaire (WOQ9) total and sub-section (motor and non-motor) scores • Clinical Global Impression of Improvement (CGI-I) • Patient's Global Impression of Improvement (PGI-I)
The proportion of subjects with an improvement from baseline in CGI-I (preferably relative to before the beginning of treatment) and PGI-I (preferably relative to their admission to the study) scores at the end of the double blind period (Visit 9) endpoint was analysed using logistic regression, with (randomized) treatment included in the model.

[2] = test system: PD patients with motor fluctuations; details: cited from earlier work; for mean treatment effect versus placebo on absolute daily OFF-time: double-blind
[3] = test system: PD patients with motor fluctuations (Japanese population); details: p<0.05, cited from earlier work
[4] = test system: PD patients with motor fluctuations; details: cited from earlier work
[5] = test system: patients who switched from entacapone to opicapone or had lack of efficacy or adverse events with entacapone; details: patients who continued with opicapone beyond 6 months; cited from earlier work
[6] = test system: PD patients with motor fluctuations; details: cited from earlier work; remark: listed apart in the source
[7] = adjunct opicapone to levodopa/benserazide, cited from earlier work
[8] = test system: erythrocyte COMT; details: cynomolgus monkey; cited from earlier work
[9] = oral opicapone with levodopa; evident 24 hours after drug administration; cited from earlier work
[10] = test system: S-COMT; details: peripheral tissues; cited from earlier work
[11] = test system: COMT activity in brain; details: cited from earlier work

Cc1c(Cl)c(C)[n+]([O-])c(Cl)c1-c1noc(-c2cc(O)c(O)c([N+](=O)[O-])c2)n1 [opicapone, 2,5-dichloro-3-[5-(3,4-dihydroxy-5-nitrophenyl)-1,2,4-oxadiazol-3-yl]-4,6-dimethylpyridine 1-oxide]
MDS-UPDRS Part III total score, change from baseline, LS mean, estimates from MMRM ([1]; OPC 50 mg once daily + L-DOPA/DDCI, Week 24): −6.5
MDS-UPDRS Part III total score, Change from Baseline, Mean ([1]; OPC 50 mg once daily + L-DOPA/DDCI, baseline to 24 weeks): −5.8
MDS-UPDRS Part III total score, Week 24, Mean ([1]; OPC 50 mg once daily + L-DOPA/DDCI, double-blind, Week 24, N = 176): 27.2
MDS-UPDRS Part III total score, LS Mean Diff. (SE) vs placebo, MMRM ([1]; OPC 50 mg vs placebo, Week 2): −0.8 (0.8)
MDS-UPDRS Part II + III total score, LS Mean Diff. (SE) vs placebo ([1]; OPC 50 mg vs placebo, Week 4): −1.4 (0.9)
MDS-UPDRS Part II total score, LS Mean Diff. (SE) vs placebo ([1]; OPC 50 mg vs placebo, Week 4): −0.2 (0.3)
MDS-UPDRS Part III total score, LS Mean Diff. (SE) vs placebo, MMRM ([1]; OPC 50 mg vs placebo, Week 4): −1.2 (0.8)
MDS-UPDRS Part II + III total score, LS Mean Diff. (SE) vs placebo ([1]; OPC 50 mg vs placebo, Week 12): −1.7 (1.06)
MDS-UPDRS Part II total score, LS Mean Diff. (SE) vs placebo ([1]; OPC 50 mg vs placebo, Week 12): −0.2 (0.4)
MDS-UPDRS Part III total score, LS Mean Diff. (SE) vs placebo, MMRM ([1]; OPC 50 mg vs placebo, Week 12): −1.7 (0.9)
MDS-UPDRS Part I total score, LS Mean Diff. (SE) vs placebo ([1]; OPC 50 mg vs placebo, Week 24): −0.2 (0.4)
MDS-UPDRS Part II + III total score, LS Mean Diff. (SE) vs placebo ([1]; OPC 50 mg vs placebo, Week 24): −2.8 (1.3)
MDS-UPDRS Part II total score, LS Mean Diff. (SE) vs placebo ([1]; OPC 50 mg vs placebo, Week 24): −0.7 (0.4)
MDS-UPDRS Part III total score, LS Mean Diff. (SE) vs placebo, MMRM ([1]; OPC 50 mg vs placebo, Week 24): −2.2 (0.9)
MDS-UPDRS Part IV total score, LS Mean Diff. (SE) vs placebo ([1]; OPC 50 mg vs placebo, Week 24): −0.11 (0.1)
PDQ-39 total score, LS Mean Diff. (SE) vs placebo ([1]; OPC 50 mg vs placebo, Week 24): −0.26 (0.77)
PDSS-2 total score, LS Mean Diff. (SE) vs placebo ([1]; OPC 50 mg vs placebo, Week 24): −1.5 (0.7)
MDS-UPDRS Part III total score, Change to Week 2, LS mean ([1]; OPC 50 mg, Week 2): −4.6
MDS-UPDRS Part II + III total score, Change to Week 4, LS mean ([1]; OPC 50 mg, Week 4): −7.3
MDS-UPDRS Part II total score, Change to Week 4, LS mean ([1]; OPC 50 mg, Week 4): −0.8
MDS-UPDRS Part III total score, Change to Week 4, LS mean ([1]; OPC 50 mg, Week 4): −6.0
MDS-UPDRS Part II + III total score, Change to Week 12, LS mean ([1]; OPC 50 mg, Week 12): −7.4
MDS-UPDRS Part II total score, Change to Week 12, LS mean ([1]; OPC 50 mg, Week 12): −0.7
MDS-UPDRS Part III total score, Change to Week 12, LS mean ([1]; OPC 50 mg, Week 12): −6.2
MDS-UPDRS Part I total score, change from baseline, LS mean, MMRM ([1]; OPC 50 mg, Week 24): 0.4
MDS-UPDRS Part II + III total score, change from baseline, LS mean, MMRM ([1]; OPC 50 mg, Week 24): −7.4
MDS-UPDRS Part II total score, change from baseline, LS mean, MMRM ([1]; OPC 50 mg, Week 24): −0.4
MDS-UPDRS Part IV total score, change from baseline, LS mean (SE), MMRM ([1]; OPC 50 mg, Week 24): 0.3 (0.1)
NMSS, change from baseline, LS mean, MMRM ([1]; OPC 50 mg, Week 24): −1.4
PDQ-39 total score, change from baseline, LS mean, MMRM ([1]; OPC 50 mg, Week 24): 0.42
PDSS-2 total score, change from baseline, LS mean, MMRM ([1]; OPC 50 mg, Week 24): 0.0
MDS-UPDRS Part I total score, Week 24, Mean ([1]; OPC 50 mg, Week 24, N = 176): 6.7
MDS-UPDRS Part II + III total score, Week 24, Mean ([1]; OPC 50 mg, Week 24, N = 176): 35.7
MDS-UPDRS Part II total score, Week 24, Mean ([1]; OPC 50 mg, Week 24, N = 176): 8.5
MDS-UPDRS Part IV total score, Week 24, Mean (SD) ([1]; OPC 50 mg, Week 24, N = 176): 0.2 (0.8)
NMSS, Week 24, Mean ([1]; OPC 50 mg, Week 24, N = 176): 15.9
PDQ-39 total score, Week 24, Mean ([1]; OPC 50 mg, Week 24, N = 176): 15.4
PDSS-2 total score, Week 24, Mean ([1]; OPC 50 mg, Week 24, N = 176): 11.6
MDS-UPDRS Part I total score, Change from Baseline, Mean ([1]; OPC 50 mg, baseline to week 24): 0.3
MDS-UPDRS Part II + III total score, Change from Baseline, Mean ([1]; OPC 50 mg, baseline to week 24): −6.2
MDS-UPDRS Part II total score, Change from Baseline, Mean ([1]; OPC 50 mg, baseline to week 24): −0.4
MDS-UPDRS Part IV total score, Change from Baseline, Mean (SD) ([1]; OPC 50 mg, baseline to week 24): 0.2 (0.8)
NMSS, Change from Baseline, Mean ([1]; OPC 50 mg, baseline to week 24): −3.0
PDQ-39 total score, Change from Baseline, Mean ([1]; OPC 50 mg, baseline to week 24): −0.29
PDSS-2 total score, Change from Baseline, Mean ([1]; OPC 50 mg, baseline to week 24): −0.4
symptomatic reduction in MDS-UPDRS Part III total score compared to placebo ([1]; baseline to end of double-blind period, p=0.010): 2.2 points
symptomatic reduction in MDS-UPDRS Part II+III total score compared to placebo ([1]; baseline to end of double-blind period, p=0.036): 2.8 points
magnitude of the changes in MDS-UPDRS Part I, MDS-UPDRS Part IV or PDQ-39 total scores ([1]; both groups (opicapone and placebo), double-blind period): less than 0.4 points
NMSS Domain 7 (urinary) subdomain score vs placebo ([1]; especially at Week 12 and Week 24 (p<0.05)): Significant improvements
proportion of patients who reported motor complications ([1]; opicapone 50 mg, end of 24-week double-blind period): 5.5%
proportion of patients reporting an improvement in their clinical condition (PGI-I score) ([1]; opicapone 50 mg, end of double-blind period, p=0.026 vs placebo): 57.9%
proportion of patients with an improvement in clinical condition assessed by a clinician (CGI-I score) ([1]; opicapone 50 mg, end of double-blind period, p=0.493 vs placebo): 50.3%
WOQ-9: proportion of subjects whose dexterity improved post-study medication ([1]; opicapone treated group): 56.6%
WOQ-9: proportion of subjects whose muscle cramping improved post-study medication ([1]; opicapone treated group): 28.3%
WOQ-9: proportion of subjects whose slowness of movement improved post-study medication ([1]; opicapone treated group): 66.2%
WOQ-9: proportion of subjects whose stiffness improved post-study medication ([1]; opicapone treated group): 56.9%
WOQ-9: proportion of subjects whose tremors improved post-study medication ([1]; opicapone treated group): 65.5%
OFF-time change from baseline at the end of the open-label phase ([2]; group that switched from placebo to opicapone): 114.7 min
mean treatment effect versus placebo on absolute daily OFF-time ([2]; opicapone 25 mg, p=0.0106): -35.1 min
OFF-time change from baseline at the end of the open-label phase ([2]; opicapone 50 mg throughout double-blind and open-label treatment): -141.1 min
mean treatment effect versus placebo on absolute daily OFF-time ([2]; opicapone 50 mg, p<0.0001): -58.1 min
placebo-adjusted reduction of OFF time ([2]; opicapone 50 mg, onset of motor fluctuations within the previous 2 years, p=0.0003): -68.5 min
placebo-adjusted mean reduction of OFF time ([2]; opicapone 50 mg, patients only taking levodopa at baseline, p=0.02): -65.6 min
placebo-adjusted reduction of OFF time ([2]; opicapone 50 mg, patients taking less than 600 mg of levodopa per day, p=0.0005): -75.5 min
placebo adjusted reduction in OFF time ([3]; opicapone 25 mg dose group): -0.74 h
placebo adjusted reduction in OFF time ([3]; opicapone 50 mg dose): -0.62 h
treatment difference in OFF time for opicapone 50 mg versus entacapone ([4]; p=0.05): 26.2 min
additional OFF-time reduction after switch from entacapone ([4]; patients that ended open-label with opicapone 50 mg): 68 min
mean reduction in OFF time measured by interview [5]: −2 hours per day
patients who reported they were improved ([6]; 3 months): 76.9%
patients judged as having worsened ([6]; UK patients (n=95), 6 months): 6.4%
patients judged as improved since commencing treatment ([6]; UK patients (n=95), 6 months): 85.3%
patients judged as showing 'no change' ([6]; UK patients (n=95), 6 months): 8.4%
patients much improved ([6]; UK patients (n=95), 6 months): 49.4%
patients very much improved ([6]; UK patients (n=95), 6 months): 8.4%
patients reported as much or very much improved (CGI-C) ([6]; opicapone 50 mg, 3 months): 43%
patients showing clinical improvement as judged by the investigators (CGI-C) ([6]; opicapone 50 mg, 3 months): 71.3%
improvement in UPDRS ADL score ([6]; opicapone adjunct therapy): 3.0 points
improvement in UPDRS motor score ([6]; opicapone adjunct therapy): 4.6 points
mean±SD improvement in NMSS sleep/fatigue score versus baseline ([6]; p<0.0001): −1.3+6.3 points
mean±SD improvement in NMSS total score versus baseline ([6]; p<0.0001): −6.8±19.7 points
increase of levodopa systemic exposure ([7]; Cmax not changed): 2 fold
reduction of 3-O-methyldopa (3-OMD) exposure and Cmax [7]: up to 7 fold
reduction in erythrocyte COMT activity [8]: ≤ 85%
brain levodopa levels [9]: sustained increase in brain levodopa levels
binding affinity to S-COMT [10]: sub-picomolar
effect on COMT activity in brain [11]: does not appear to have any effect
